In US4533670A, “Anti-convulsant fluorenylalkylimidazole derivatives, compositions, and method of use” (Eli Lilly and Company, priority 1983, dated 1985):
Counter-ions that a name gives are not always drawn.

System: not given
Test: not given
Settings: man, ataxia; cited from earlier work

Row | Compound | plasma level at which ataxia is obvious [ng/mL]
1 | O=C1NC(=O)C(c2ccccc2)(c2ccccc2)N1 [phenytoin] | 30000

Same assay, conditions: man, lethargy; cited from earlier work

Row | Compound | plasma level at which lethargy is apparent
2 | O=C1NC(=O)C(c2ccccc2)(c2ccccc2)N1 [phenytoin] | about 40 mcg./ml.

Same assay, conditions: man, nystagmus; cited from earlier work

Row | Compound | plasma level at which nystagmus is seen
3 | O=C1NC(=O)C(c2ccccc2)(c2ccccc2)N1 [phenytoin] | around 20 mcg./ml.

System: extensor tonic convulsions
Test: Electroshock induced convulsion inhibition assay
Format: in vivo, Cox standard strain albino male mice
Settings: Mus musculus, po, 1 h; p.o. (gavage), mice; 60 minutes after administration (optimal time); 0.1 second, 50 milliampere corneal electroshock; read-out: ED50 (dose which inhibited extensor tonic convulsions in one half of the animals)
Text: The compounds of Formula II are anticonvulsant agents with a high therapeutic ratio and long half-life and are therefore useful in the treatment and/or prevention of convulsions in mammals. In particular, the compounds are effective against tonic extensor seizures elicited by maximal electroshock and should therefore be useful for treating generalized tonic-clonic ("grand mal"), cortical focal, complex partial (temporal lobe epilepsy), simple partial (focal motor), and post-traumaticseizures in humans. […] In the electroshock induced convulsion inhibition assay, the compound to be tested was dissolved in water (5%--sufficient hydrochloric acid was added for those compounds which were not isolated as a salt in order to effect dissolution) and administered by gavage to each of three Cox standard strain albino male mice (18-24 g.) at the dose level being investigated. Sixty to 240 minutes after compound administration, the mice were subjected to a 0.1 second, 50 milliampere electroshock through corneal electrodes. The animals were examined and evaluated immediately after the electroshock for the occurrence of clonic, flexor tonic, or extensor tonic convulsions, or death and the ED50 was determined for each compound (for the particular time after administration of the compound) as the dose which inhibited the occurrence of extensor tonic convulsions in one half of the animals immediately after the electroshock. For comparison, 18 milliamperes was usually sufficient to produce extensor tonic convulsions in about half of the control animals; at 50 milliamperes, almost all control animals (receiving vehicle only) died. The test results are summarized in Table I as the ED50 's at the optimal time after compound administration.

Row | Compound | ED50 [mg/kg]
4 | Cc1cn(CC(=O)c2ccc3c(c2)Cc2ccccc2-3)cn1.Cl [Example 3, 1-(9H-fluoren-2-yl)-2-(4-methyl-1H-imidazol-1-yl)ethanone hydrochloride] | 90
5 | O=C(OC(Cn1ccnc1)c1ccc2c(c1)Cc1ccccc1-2)c1ccccc1 (stereo not shown) [Example 16, 1-(9H-fluoren-2-yl)-2-(1H-imidazol-1-yl)-1-ethanol, benzoate ester hydrochloride] | 32
6 | Cl.O=C(Cn1ccnc1)c1cccc2c1-c1ccccc1C2 [Example 10, 1-(9H-fluoren-4-yl)-2-(1H-imidazol-1-yl)ethanone hydrochloride] | 44
7 | Cl.O=C(CCn1ccnc1)c1ccc2c(c1)Cc1ccccc1-2 [Example 11, 1-(9H-fluoren-2-yl)-3-(1H-imidazol-1-yl)-1-propanone hydrochloride] | 19
8 | OC(Cn1ccnc1)c1ccc2c(c1)Cc1ccccc1-2 (stereo not shown) [Example 14, 1-(9H-fluoren-2-yl)-2-(1H-imidazol-1-yl)-1-ethanol] | 22
9 | CC1(C)c2ccccc2-c2ccc(C(=O)Cn3ccnc3)cc21.Cl [Example 6, 1-(9,9-Dimethyl-9H-fluoren-2-yl)-2-(1H-imidazol-1-yl)ethanone hydrochloride] | 48
10 | CCSC(Cn1ccnc1)c1ccc2c(c1)Cc1ccccc1-2.Cl (stereo not shown) [Example 17, 1-[2-(Ethylthio)-2-(9H-fluoren-2-yl)ethyl]-1H-imidazole hydrochloride] | 44
11 | Cc1nccn1CC(=O)c1ccc2c(c1)Cc1ccccc1-2.Cl [Example 1, 1-(9H-fluoren-2-yl)-2-(2-methyl-1H-imidazol-1-yl)ethanone hydrochloride] | 210
12 | OC(CCn1ccnc1)c1ccc2c(c1)Cc1ccccc1-2 (stereo not shown) [Example 15, 1-(9H-fluoren-2-yl)-3-(1H-imidazol-1-yl)-1-propanol] | 33
13 | Cl.c1ccc2c(c1)Cc1cc(C3(Cn4ccnc4)OCCCO3)ccc1-2 [Example 21, 1-([2-(9H-fluoren-2-yl)-1,3-dioxan-2-yl]methyl)-1H-imidazole hydrochloride] | 32
14 | CCC(C(=O)c1ccc2c(c1)Cc1ccccc1-2)n1ccnc1.Cl (stereo not shown) [Example 13, 2-(1H-imidazol-1-yl)-1-(9H-fluoren-2-yl)-1-butanone hydrochloride] | 50
15 | c1ccc2c(c1)Cc1cc(C3(CCn4ccnc4)OCCO3)ccc1-2 [Example 22, 1-(2-[2-(9H-fluoren-2-yl)-1,3-dioxolan-2-yl]ethyl)-1H-imidazole] | 26

Same assay, conditions: Mus musculus, po, 1.5 h; p.o. (gavage), mice; 90 minutes after administration (optimal time); 0.1 second, 50 milliampere corneal electroshock; read-out: ED50 (dose which inhibited extensor tonic convulsions in one half of the animals)

Row | Compound | ED50 [mg/kg]
16 | CC(C(=O)c1ccc2c(c1)Cc1ccccc1-2)n1ccnc1.Cl (stereo not shown) [Example 12, 2-(1H-imidazol-1-yl)-1-(9H-fluoren-2-yl)-1-propanone hydrochloride] | 35

Same assay, conditions: Mus musculus, po, 2 h; p.o. (gavage), mice; 120 minutes after administration (optimal time); 0.1 second, 50 milliampere corneal electroshock; read-out: ED50 (dose which inhibited extensor tonic convulsions in one half of the animals)

Row | Compound | ED50 [mg/kg]
17 | Cl.c1ccc2c(c1)Cc1cc(C3(Cn4ccnc4)SCCS3)ccc1-2 [Example 23, 1-([2-(9H-fluoren-2-yl)-1,3-dithiolan-2-yl]methyl)-1H-imidazole hydrochloride] | 41
18 | CC(O)(Cn1ccnc1)c1ccc2c(c1)Cc1ccccc1-2 (stereo not shown) [Example 24, 1-(1H-imidazol-1-yl)-2-(9H-fluoren-2-yl)-2-propanol] | 14
19 | CC1(C)COC(Cn2ccnc2)(c2ccc3c(c2)Cc2ccccc2-3)OC1 [Example 20, 1-([2-(9H-fluoren-2-yl)-5,5-dimethyl-1,3-dioxan-2yl]methyl)-1H-imidazole] | 65
20 | Cl.O=C(Cn1ccnc1)c1ccc2c(c1)Cc1cc(Br)ccc1-2 [Example 4, 2-(1H-imidazol-1-yl)-1-(7-bromo-9H-fluoren-2-yl)ethanone hydrochloride] | 79
21 | Cc1ccc2c(c1)Cc1cc(C(=O)Cn3ccnc3)ccc1-2.Cl [Example 7, 2-(1H-imidazol-1-yl)-1-(7-methyl-9H-fluoren-2-yl)ethanone hydrochloride] | 68
22 | Cl.O=C(Cn1ccnc1)c1cccc2c1Cc1ccccc1-2 [Example 9, 1-(9H-fluoren-1-yl)-2-(1H-imidazol-1-yl)ethanone hydrochloride] | 20
23 | CC1COC(Cn2ccnc2)(c2ccc3c(c2)Cc2ccccc2-3)O1 (stereo not shown) [Example 19, 1-([2-(9H-fluoren-2-yl)-4-methyl-1,3-dioxolan-2-yl]methyl)-1H-imidazole] | 21
24 | CC1c2ccccc2-c2ccc(C(=O)Cn3ccnc3)cc21.Cl (stereo not shown) [Example 5, 2-(1H-imidazol-1-yl)-1-(9-methyl-9H-fluoren-2-yl)ethanone hydrochloride] | 33
25 | CCc1nccn1CC(=O)c1ccc2c(c1)Cc1ccccc1-2 [Example 2, 2-(2-ethyl-1H-imidazol-1-yl)-1-(9H-fluoren-2-yl)ethanone] | 188

Same assay, conditions: Mus musculus, po, 3 h; p.o. (gavage), mice; 180 minutes after administration (optimal time); 0.1 second, 50 milliampere corneal electroshock; read-out: ED50 (dose which inhibited extensor tonic convulsions in one half of the animals)

Row | Compound | ED50 [mg/kg]
26 | Cl.O=C(Cn1ccnc1)c1ccc2c(c1)Cc1ccccc1-2 [Example 8, 2-(1H-imidazol-1-yl)-1-(9H-fluoren-2-yl)ethanone hydrochloride] | 25

Same assay, conditions: Mus musculus, po, 4 h; p.o. (gavage), mice; 240 minutes after administration (optimal time); 0.1 second, 50 milliampere corneal electroshock; read-out: ED50 (dose which inhibited extensor tonic convulsions in one half of the animals)

Row | Compound | ED50 [mg/kg]
27 | c1ccc2c(c1)Cc1cc(C3(Cn4ccnc4)OCCO3)ccc1-2 [Example 18, 1-([2-(9H-fluoren-2-yl)-1,3-dioxolan-2-yl]methyl)-1H-imidazole] | 23

System: seizures
Test: not given
Settings: man; cited from earlier work

Row | Compound | plasma level at which seizures are controlled [µg/mL]
28 | O=C1NC(=O)C(c2ccccc2)(c2ccccc2)N1 [phenytoin] | ≥ 10
